Measured values: patent US6646006B2, “Enhancement of vascular function by modulation of endogenous nitric oxide production or activity” (The Board of Trustees of the Leland Stanford Junior …, priority 1993, dated 2003)
“Also recorded” adds a separate entry of the source.

Columns and labels:
[1] = system: hypercholesterolemic rabbits; test: Organ chamber studies of isolated vessels from cholesterol-fed rabbits; format: in vivo, rabbit
Excerpt: (§1) Study design: (See, Cooke et al., 1992, supra) Male New Zealand white rabbits (n=49) were assigned to one of three treatment groups: 10 were fed with normal rabbit chow for ten weeks (Control); 19 received chow enriched with 1% cholesterol (Chol); and 20 received a 1% cholesterol diet supplemented with 2.25% L-arginine hydrochloride in the drinking water (Arg.). […] Subsequently the animals were sacrificed and the left main coronary artery and the thoracic aorta were harvested for studies of vascular reactivity and histomorphometry. In some animals, blood was collected for studies of platelet and monocyte reactivity.
By contrast, NO-dependent relaxations were attenuated in vessels harvested from hypercholesterolemic animals with a reduction in the maximal response to acetylcholine. In comparison, vessels harvested from hypercholesterolemic animals receiving L-arginine supplementation had improved NO-dependent relaxation to acetylcholine. In a separate study, the effect of chronic arginine supplementation to improve NO-dependent relaxation was confirmed in the hypercholesterolemic rabbit abdominal aorta.

platelets = test: ADP-initiated platelet aggregation (nephelometry), platelets from treated rabbits; format: in vivo, rabbit
Protocol: The effect of L-arginine supplementation on platelet reactivity in rabbits that had normal chow (Control; n=6), a 1% cholesterol diet (Chol; n=5), or a 1% cholesterol diet supplemented with oral arginine (Arg; n=6), as detailed above, was examined. Arterial blood obtained after central ear artery cannulation was anticoagulated with 13 mM sodium citrate. Platelet-rich suspension was prepared by washing platelets in calcium-free Krebs-Henseleit solution and resuspending them in Tyrode's solution with albumin. Aggregation was initiated by addition of adenosine diphosphate and monitored by standard nephelometric techniques. In platelets derived from Chol animals, aggregation was not different in rate or maximum extent in comparison to platelets from Control animals (A, in FIG. 2). By contrast, aggregation of platelets from Arg animals was reduced by 50% (B, in FIG. 2).
Therefore, the anti-platelet effect of chronic oral arginine administration can be credited to an increased synthesis of endogenous NO. Furthermore, NO synthesis may be induced in both the platelets and the endothelium.

[2] = system: hypercholesterolemic rabbits; test: Oral arginine in cholesterol-fed rabbits: biochemical and physiological measurements; format: in vivo, rabbit; conditions: 1% cholesterol diet + 2.25% L-arginine HCl in drinking water, vs Control or Chol diet
Excerpt: as §1
Results: Biochemical and physiological measurements. […] Serum cholesterol measurements were elevated equally in both groups receiving the 1% cholesterol diet [50±6 vs. 1629±422 vs. 1852±356 mg/dl respectively for Control (=10), Chol (=13), and Arg (=14)].

coronary arteries = test: Coronary response to intracoronary acetylcholine after intravenous L-arginine in cardiac transplant recipients; format: in vivo, human
Protocol: Cardiac transplant recipients scheduled for elective annual coronary angiography at Stanford University hospital were screened for possible participation in the study. The study protocol was approved by the Stanford University Committee on Human Subjects in Medical Research. All patients gave written informed consent. Eighteen patients who had cardiac transplantation 1 to 13 years previously were studied.
Vasoactive medications were discontinued at least 12 hours before the study. […] An infusion catheter was then advanced over a Doppler flow velocity guide wire into a nonbranching segment of the coronary artery for infusion of acetylcholine (which stimulates the endothelium to release NO). After baseline angiography was performed, increasing concentrations of acetylcholine were serially infused over 3 minutes. Infusion of acetylcholine continued until the maximum dose (10^−4 mol/L) was reached or until total coronary occlusion occurred. Then an intravenous infusion of L-arginine (30 g over 15 minutes) was performed. Thereafter, the intracoronary infusion of acetylcholine was repeated. Coronary angiography and Doppler flow velocity recording was performed at the end of the L-arginine infusion and after the infusion of each concentration of acetylcholine.

[3] = system: hypercholesterolemic rabbits; test: Histomorphometry and lesion surface area planimetry of thoracic aorta and left main coronary artery; format: in vivo, rabbit
Excerpt: as §1
By contrast, the intimal cross-sectional area (i.e. amount of atherosclerotic plaque) of vessels from hypercholesterolemic animals receiving L-arginine supplementation was reduced in comparison to those from animals receiving cholesterol diet alone. In the Arg animals the reduction in the intimal lesion was most pronounced in the ascending thoracic aorta and left main coronary artery.
Changes in lesion surface area: In a second series of studies, the extent of the thoracic aorta involved by lesions was examined. In hypercholesterolemic rabbits receiving vehicle (n=6) or L-arginine supplement (n=6), thoracic aortae (from left subclavian artery to diaphragm) were harvested after ten weeks of treatment, bisected longitudinally, and stained with oil-red O. Vessels were photographed and vessel and lesion surface area determined by planimetry. Approximately 40% of the total surface area was covered with plaque in thoracic aortae from hypercholesterolemic animals receiving vehicle, whereas in thoracic aortae from arginine-treated hypercholesterolemic animals, less than 10% of the surface area was covered with plaque (FIG. 1).

MCP-1 = test: Northern analysis of MCP-1 expression in thoracic aortae; format: in vivo, rabbit; conditions: two weeks; L-NA on normal chow, Arg on high cholesterol diet
Excerpt: To investigate the role of endogenous NO in the regulation of MCP-1 in vivo, NZW rabbits were fed normal chow, normal chow plus nitro-L-arginine (L-NA) (to inhibit vascular NO synthesis), high cholesterol diet (Chol), or high cholesterol diet supplemented with L-arginine (Arg) (to enhance NO synthesis). After two weeks, thoracic aortae were harvested and total RNA was isolated. […] These studies indicate that the anti-atherogenic effect of NO may be mediated in part by its inhibition of MCP-1 expression. NO inhibits the generation of superoxide anion by the vascular cells and thereby turns off an oxidant-responsive transcriptional pathway (i.e. NFκB-mediated transcription) activating MCP-1 expression.

[4] = system: rabbit aortic endothelium; test: Ex vivo binding of WEHI 78/24 monocytoid cells to rabbit aortic endothelium; format: in vivo; conditions: two weeks, L-arginine supplementation
Excerpt: Methods. Animals. Male New Zealand White rabbits were pair fed, receiving one of the following dietary interventions for two weeks: normal rabbit chow (Cont, n=7); rabbit chow enriched with 1% cholesterol (Chol, n=7); or 1% cholesterol chow supplemented with 2.25% L-arginine HCl in the drinking water (Arg, n=7) ad libitum throughout the course of the study. […] One day before sacrifice (after 2 weeks of dietary intervention), animals were lightly sedated and the central ear artery was cannulated for collection of blood samples.
Mononuclear cell culture and isolation. Murine monocytoid cells, WEHI 78/24 cells were grown in Dulbecco's Modified Eagle's Medium supplemented 10% fetal calf serum (vol/vol) and were kept in an atmosphere of 5% CO2/95% air. Prior to binding studies, mononuclear cells were fluorescently labeled with TRITC (3 μg/ml). To confirm the results using WEHI cells, in some studies binding studies were performed in parallel using rabbit mononuclear cells. Mononuclear cells were isolated from fresh whole blood of Control rabbits before sacrifice.
Preparation of aortic endothelium and binding assay. […]
After 10 minutes the HBSS medium was replaced by binding medium containing WEHI cells. […] The aortic segments were then removed and placed on a glass slide, and adherent cells counted under epifluorescent microscopy from at least 30 sites on each segment.

Compound: N=C(N)NCCC[C@H](N)C(=O)O [L-arginine]
- NO-independent responses: maximal response or sensitivity to norepinephrine or nitroglycerin ([1]; differences between treatment groups): no differences
- NO-dependent relaxation to acetylcholine ([1]; vs hypercholesterolemic animals without supplement): improved
- cGMP content in aggregated platelets (platelets; arginine-treated animals): two-fold greater
- reduction of platelet aggregation (platelets; platelets from Arg animals, adenosine diphosphate): 50%
- plasma arginine levels [2]: twofold elevation
- complications or side-effects of the infusion (coronary arteries; 30 g i.v. over 15 minutes): no complications or side-effects
- Epicardial coronary vasoconstriction caused by acetylcholine (coronary arteries; acetylcholine 10^−4 mol/L, after L-arginine 30 g i.v. over 15 minutes): −2.8%
- increase in coronary blood flow to acetylcholine (coronary arteries; after L-arginine 30 g i.v.): significantly enhanced; also recorded: improved
- atherosclerotic plaque in the left main coronary artery ([3]; hypercholesterolemic animals receiving arginine): essentially no atherosclerotic plaque developed
- surface area of thoracic aorta covered with plaque ([3]; ten weeks, oil-red O, planimetry): less than 10%
- intimal cross-sectional area (amount of atherosclerotic plaque) ([3]; vs cholesterol diet alone): reduced
- expression of MCP-1 in aortae (MCP-1): decreased
- increased WEHI cell binding to aortic endothelium of hypercholesterolemic animals [4]: significantly attenuated
